From patent US7943376B2, “Platelet derived growth factor (PDGF)-derived neurospheres define a novel class of progenitor cells” (Stem Cell Therapuetics Inc., priority 2001, dated 2011)
Several values for one entry are separate records, joined by “and”; a condition that tells them apart may be missing. Identical values can stand only once. Entries after “also recorded” stand apart in the source; their conditions may differ.

Tests used:
primary EGF neurospheres = test: Secondary neurosphere formation from dissociated EGF-derived primary neurospheres; assay type: cell-based, mouse; settings: single primary EGF-generated neurospheres dissociated in EGF- or PDGF-containing media; eight wells per condition; Exp. #1 and #2
Procedure: To determine if the neurospheres derived in EGF-containing media have different proliferation properties as those of PDGF-generated neurospheres, primary EGF neurospheres were generated from embryonic day 14 striatum by culturing dissociated striatum in EGF (20 ng/ml) containing define culture media at a cell density of 200,000 cells/ml. Subsequently, individual neurospheres were isolated, placed in individual wells in either PDGF or EGF containing media, and dissociated mechanically. The numbers of secondary neurospheres that came from a single primary EGF-generated neurospheres are given below (eight wells for each condition; numbers indicate average number of secondary neurospheres/well): […]

[1] = system: lateral ganglionic eminence (LGE); test: Neurosphere formation using lateral ganglionic eminence; assay type: cell-based, mice; settings: LGE from E14 embryos, cultured as in Example 1 with EGF or PDGF; n = 2 or 3
Text: (§1) In order to locate the cells that give rise to the novel progenitor cells described herein, we dissected ganglionic eminence to two portions. Thus, the ganglionic eminence was isolated from E14 embryos of mice, and the medial ganglionic eminence (MGE) was separated from the lateral ganglionic eminence (LGE). MGE and LGE were then dissociated and cultured as described in Example 1. The resulting primary culture was exposed to EGF or PDGF in addition to the defined culture media, and the number of neurospheres were counted and summarized below.

[2] = system: PDGF primary neurospheres; test: Secondary neurosphere formation from dissociated PDGF-derived primary neurospheres; assay type: cell-based, mouse; settings: single PDGF primary neurospheres dissociated in 20 ng/ml EGF or 100 ng/ml PDGF-AA; 7 or more days in vitro
Procedure: Single PDGF primary neurospheres prepared as described in Example 1 were transferred into 96-well plates and mechanically dissociated in either the presence of 20 ng/ml EGF (Peprotech) or 100 ng/ml PDGF-AA. The formation of secondary neurospheres was assayed after 7 or more days in culture in vitro.

[3] = system: brain tissue prepared as described in Example 1 (E14 striatum); test: Combined effect of PDGF and EGF on number of neurospheres formed; assay type: cell-based, mouse; settings: cultured in PDGF, EGF, or the combination of PDGF and EGF
Procedure: (§2) E14 striatum was mechanically dissociated as previously described (for example see U.S. Pat. Nos. 5,750,376; 5,980,885; or 5,851,832) and plated at 10,000 cells/ml in 6 well plates in defined culture media plus 100 ng/ml of PDGF-AA (Peprotech). The composition of defined culture media is as follows: • DMEM/F12 (1:1) • glucose (0.6%) • glutamine (2 mM) • sodium bicarbonate (3 mM) • HEPES (5 mM) • insulin (25 μg/ml) • transferrin (100 μg/ml) • progesterone (20 nM) • putrescine (60 μM) • selenium chloride (30 nM)
We also tested the effect of combining PDGF and EGF on the number of neurospheres formed. Thus, brain tissue was prepared as described in Example 1 and cultured in the presence of PDGF, EGF, or the combination of PDGF and EGF.

[4] = system: medial ganglionic eminence (MGE); test: Neurosphere formation using medial ganglionic eminence; assay type: cell-based, mice; settings: MGE from E14 embryos, cultured as in Example 1 with EGF or PDGF; n = 2 or 3
Text: as §1

E14 striatum = test: PDGF-induced production of primary neurospheres from dissociated E14 striatum; assay type: cell-based, mouse
Procedure: as §2
Neurospheres, which are clusters of neural cells derived from single cells, formed after 7 days of culture in vitro (DIV). Six wells per experiment were counted for neurosphere production and the results are shown below:
In control experiments, wherein PDGF was omitted from the culture media, no neurospheres formed. Therefore, PDGF is capable of inducing neurosphere production from single precursor cells in the absence of serum, EGF, TGF-α and FGF-2.

[5] = system: PDGF-derived neurospheres; test: Effect of Tyrphostin AG 1296 on primary neurosphere formation in response to PDGF; assay type: cell-based, mouse
Procedure: (§3) In order to determine if the PDGF-induced primary neurosphere formation is mediated by the PDGF receptor kinase, a selective PDGF receptor kinase inhibitor, Tyrphostin AG 1296, was added to neurosphere culture. Primary cells were cultured at 10,000 cells/ml in the presence of either EGF or PDGF, plus 5 μM of Tyrphostin AG 1296 (Sigma) or DMSO in the same volume as Tyrphostin (DMSO being the solvent for Tyrphostin). Results are expressed below as the percentage of neurospheres formed, with the number of PDGF- or EGF-derived neurospheres arbitrarily set at 100%, respectively.

EGF-derived neurospheres = test: Effect of Tyrphostin AG 1296 on primary neurosphere formation in response to EGF; assay type: cell-based, mouse
Procedure: as §3

Substance | average number of secondary neurospheres/well (primary EGF neurospheres) | Average number of neurospheres [1] | Average # of secondary neurospheres formed/well [2] | Average number of neurospheres [3] | Average number of neurospheres [4] | Average number of neurospheres produced/well, average of experiments 1-6 (E14 striatum; 100 ng/ml PDGF-AA, 10,000 cells/ml, 7 DIV, mean over six experiments) | Average number of neurospheres produced/well (E14 striatum; 100 ng/ml PDGF-AA, 10,000 cells/ml, defined media, 7 DIV, single experiments, six wells each) | Average number of neurospheres produced/well (E14 striatum; as E1, experiments marked *: PDGF used immediately after reconstitution in defined culture media) | Potency when used immediately after reconstitution in defined culture media (E14 striatum; relative to PDGF not used immediately after reconstitution) | Effect on primary neurosphere formation induced by PDGF (in words) ([5]; 5 μM Tyrphostin AG 1296) | percentage of neurospheres formed ([5]; PDGF plus 5 μM Tyrphostin AG 1296, 10,000 cells/ml, PDGF alone set at 100%, n = 3 to 9) | Effect on EGF-derived neurosphere formation (in words) (EGF-derived neurospheres; 5 μM Tyrphostin AG 1296) | percentage of neurospheres formed (EGF-derived neurospheres; EGF plus 5 μM Tyrphostin AG 1296, 10,000 cells/ml, EGF alone set at 100%, n = 3 to 9)
EGF: epidermal growth factor (Peprotech), used at 20 ng/ml | 27 and 14.1 | 9.64 ± 1.59 | 3.12 ± 1.64 (n = 3) | 80.5 ± 8.57 | 16.9 ± 2.87 | – | – | – | – | – | – | – | –
PDGF: platelet derived growth factor; PDGF-AA (Peprotech) used at 100 ng/ml | 21.5 and 26.7 | 1.27 ± 0.45 | 0 | 73.36 ± 7.13 | 10.22 ± 1.11 | average = 17.7 ± 5.0 | 14.5 and 9.2 and 8.6 and 7.7 | 34.3* and 32.5* | *PDGF appears to be approximately 3 fold more potent when used immediately after reconstitution in defined culture media. | – | – | – | –
Tyrphostin AG 1296 | – | – | – | – | – | – | – | – | – | inhibited; also recorded: almost abolished | 10% | inhibited by Tyrphostin AG 1296 to some extent | 55%
